Test results as given in EP4670723A1, “PI[…] USE IN THE TREATMENT OF OSTE[…] NON-HUMAN MAMMALS” (Vetbiolix, priority 2024, dated 2025).
Read-outs that look alike come from different tables or passages of the source.

Tests used:
[1] = tested on: monoidoacetate (MIA) experimental rat models; details: cited from earlier work
[2] = tested on: dogs with osteoarthritis (OA); assay: multicentric, non-comparative, randomized proof of concept study, 90 days oral treatment of dogs with osteoarthritis; format: in vivo, dog
human patients = details: cited from earlier work; for Activity: Human
[3] = tested on: dogs with osteoarthritis (OA); assay: multicentric, non-comparative, randomized proof of concept study, 90 days oral treatment of dogs with osteoarthritis; format: in vivo, dog; details: for Activity: Dog
Procedure: This was a multicentric, non-comparative, randomized proof of concept study in which 15 dogs with osteoarthritis (OA) were treated with piclidenosone (VBX1000) for 90 days.
[…] Two intermediate visits were included for clinical examination and for calculating OA scores.
The primary objective of this study was to assess the efficacy of piclidenosone to reduce OA symptoms severity after 90 days of treatment. For that purpose, OA symptoms and motility were scored by the owner using Liverpool Osteoarthritis in Dogs (LOAD) questionnaire at Day-0, Day-30, Day-60 and Day-90. […]
• Inclusion criteria • ∘ The owner approved and signed the informed consent form prior to the participation of his/her dog in the study; • ∘ Dog older than 18 months; • ∘ Dog with a Body Condition score lower than 8 (on a 9 point-scale); • ∘ Dog with a symptomatic unifocal or multifocal osteoarthritis, characterized by the presence of osteophyte on at least one site on radiographic views; • ∘ LOAD mobility total score of ≥ 11 at visit V2 (Day 0). • Exclusion criteria • ∘ Animals intended for breeding or known to be pregnant or lactating; • ∘ Dog with severe OA which requires concomitant treatment; • ∘ Presence of complete cranial cruciate ligament rupture; • ∘ Breeds at risk of MDR1 gene mutation (MDR1 genetic test required before screening of a dog from known affected breed: Collie, Border Collie, Australian and English Shepherd, German Shepherd, Long-Haired Whippet, Shetland Sheepdog); • ∘ History of orthopaedic surgery including complete cranial cruciate ligament rupture surgically treated with Tibial Tuberosity Advancement (TTA) or Tibial Plateau Leveling Osteotomy (TPLO) or elbow debridement within 3 months prior to inclusion; • ∘ Presence of musculoskeletal lesions (e.g., glycogenosis, primary muscular dystrophy) or untreated neoplasia prior to inclusion; • ∘ Presence of concurrent systemic disease such as neurologic, hepatic, renal or cardiac disease; • ∘ Dog under physical therapy (including acupuncture) for orthopaedic indication unless a 1-week wash-out period is applied prior to visit V1 (between D-21 and D-14); • ∘ Dog treated with methotrexate; • ∘ Dog treated with nonsteroidal anti-inflammatory drugs unless a 2-weeks wash-out period is applied prior to visit V1 (between D-21 and D-14); • ∘ Dog that received mavacoxib or enflicoxib within 3 months prior to visit V1 (between D-21 and D-14); • ∘ Dog treated with short-acting corticosteroids (i.e., hydrocortisone) unless a 2-weeks wash-out period is applied prior to visit V1 (between D-21 and D-14); • ∘ Dog treated with intermediate-acting corticosteroids (i.e., prednisone, prednisolone, methylprednisolone) unless a 4-weeks wash-out period is applied prior to visit V1 (between D-21 and D-14); • ∘ Dog treated with long-acting corticosteroids (i.e., dexamethasone) unless a 12-weeks wash-out period is applied prior to visit V1 (between D-21 and D-14); • ∘ Dog treated with any intra-articular injection in the joint under study within 2 months prior to visit V1 (between D-21 and D-14); • ∘ Dog treated with a subcutaneous injection of bedinvetmab unless a 4-week wash-out periods is applied prior to visit V1 (between D-21 and D-14); • ∘ Dog treated with OA modifying diet and/or food supplements (i.e., glycosaminoglycans, glucosamine and chondroitin sulphate or other) unless its administration has been regular during the month preceding visit V1 (between D-21 and D-14) and will be continued during the study duration; • ∘ Dog unable to walk on a leash. […]

[4] = tested on: patients with osteoarthritis of the knee; details: 1000 µg (14.5 µg/kg) twice daily orally for 12 weeks; trial discontinued; cited from earlier work
[5] = oral, 100 µg/kg body weight twice a day
[6] = 100 µg/kg bid, 90 days vs baseline

## CNC(=O)[C@H]1O[C@@H](n2cnc3c(NCc4cccc(I)c4)ncnc32)[C@H](O)[C@@H]1O [piclidenoson, 1-Deoxy-1-[6-[[(3-iodophenyl)methyl]amino]-9H-purin-9-yl]-N-methyl-β-D-ribofuranuronamide]
[1]; Rat, Bid Dose 100 µg/kg
  Activity: Yes
[1]; [5]
  NF-kappaB signaling pathway: deregulated
  apoptosis of inflammatory cells: induced apoptosis
  cartilage protection: cartilage protective agent
[2]; [6]
  proportion of patient with low NRS2 (pain score): non-significant increase
[2]; 500 µg/kg bid oral, Day-90, N=9, baseline 22.9±7.2 at Day-0, p<0.01, primary endpoint met
  LOAD score: 14.9±10.6
[2]; 500 µg/kg bid, 90 days vs baseline, p<0.05 Fisher exact test
  proportion of patients with low scores, NRS2 (pain score): reached statistical significance
[2]; 500 µg/kg bid, 90 days vs baseline, statistical significance
  proportion of patients with low scores, NRS1 (lameness score): not for NRS1
Human patients; Bid Dose 2000 µg (29 µg/kg)
  Activity: Yes
Human patients; Bid Dose 4000 µg (57 µg/kg)
  Activity: Yes
Human patients; from clinical Phase 2 trials, assuming body weight of 70 kg
  Active Dose in Human: 0.029 mg/kg
[3]; 100 µg/kg bid group, 90-day treatment period
  pain score (Visual Analog Score or VAS): not significantly improved
[3]; [6]
  proportion of patient with low NRS1 (lameness score): non-significant increase
[3]; 100 µg/kg twice a day orally for 90 days
  evidence for efficacy in the treatment of osteoarthritis in dogs: do not provide evidence for efficacy
[3]; 500 µg/kg bid group as compared to 100 µg/kg bid, decrease in LOAD score ≥4, Day-90 vs inclusion
  proportion of patient experiencing clinically meaningful improvement of LOAD score: higher
[3]; 500 µg/kg bid group, statistical significance from Day-60 up to end of treatment
  pain score (Visual Analog Score or VAS): significant decrease
[3]; 500 µg/kg bid, after 90 days
  change in LOAD score vs that obtained after ligament surgery in dogs with ligament rupture: comparable
[3]; Bid Dose 100 µg/kg
  Activity: No
[3]; Bid Dose 500 µg/kg
  Activity: Yes
[3]; end of treatment period, 500 µg/kg bid group as compared to 100 µg/kg bid group
  proportion of patients showing VAS improvement (Δ≤-1): superior
[3]; group 1, 100 µg/kg bid, observed at Day-30, totally disappeared at Day-60 and Day-90
  temporal evolution of mean LOAD score: transient decrease
[3]; group 2, 500 µg/kg bid, statistical significance from Day-60 to end of treatment
  temporal evolution of mean LOAD score: time-dependent decrease
[3]; proof-of-concept trial in dog with osteoarthritis, bid
  Active Dose in dog: 0.5 mg/kg
[3]; repeated oral administration at dose ≥ 500 µg/kg bid
  clinical symptoms of osteoarthritis in dog: improves clinical symptoms
[3]; throughout the study, 100 and 500 µg/kg bid for 90 days
  tolerance: well tolerated with no treatment related SAE and no death
[4]
  efficacy: lack of efficacy
